Consider two compounds from ChEMBL document CHEMBL3044925, “Synthesis of piperazino and morpholino derivatives of aryloxypropane with potential analgesic and possible antimigraine activities” (Med Chem Res, 2011).

Structures are written as SMILES.

For data set [1], the system named is Mus musculus. Kind of data set: Neurotoxicity against Mus musculus MFI (mouse) assessed as irritability at 90 mg/kg, ip. The note with it: in vivo. It counts as toxicity, organism-based. On the set-up: dose 90 mg/kg, route intraperitoneal.
For data set [2], the system named is Mus musculus. Nature of the data set: Neurotoxicity against Mus musculus MFI (mouse) assessed as excitation at 90 mg/kg, ip. Format: toxicity, organism-based. On the set-up: dose 90 mg/kg, route intraperitoneal. Particulars: in vivo.
Data set [3] deals with Mus musculus. Kind of data set: Neurotoxicity against Mus musculus MFI (mouse) assessed as skeletal muscle incoordination at 90 mg/kg, ip. On the set-up: dose 90 mg/kg, route intraperitoneal. Format: toxicity, organism-based, Muscle tissue. Particulars: in vivo.
Data set [4] relates to Mus musculus. Kind of data set: Neurotoxicity against Mus musculus MFI (mouse) assessed as effect on respiration at 90 mg/kg, ip. Particulars: in vivo. It counts as toxicity, organism-based. Further details: dose 90 mg/kg, route intraperitoneal.
The test system of data set [5] is Mus musculus. Nature of the data set: Neurotoxicity against Mus musculus MFI (mouse) assessed as eye protrusion at 90 mg/kg, ip. Particulars: in vivo. Format: toxicity, organism-based. On the set-up: dose 90 mg/kg, route intraperitoneal.
The subject of data set [6] is Mus musculus. Kind of data set: […] activity in Mus musculus MFI (mouse) assessed as inhibition of PBQ-induced writhing at 90 mg/kg, ip administered 1.5 hr prior to PBQ-challenge measured after 10 min relative to aspirin. Format: functional. The note with it: route intraperitoneal.
The subject of data set [7] is Mus musculus. Nature of the data set: Neurotoxicity against Mus musculus MFI (mouse) assessed as muscle twitching at 90 mg/kg, ip. On the set-up: dose 90 mg/kg, route intraperitoneal. Particulars: in vivo. It counts as toxicity, organism-based, Muscle tissue.
Data set [8] concerns Mus musculus. Kind of data set: Neurotoxicity against Mus musculus MFI (mouse) assessed as epilepsy at 90 mg/kg, ip. Format: toxicity, organism-based. Further details: dose 90 mg/kg, route intraperitoneal. Particulars: in vivo.
Data set [9] has as its system Mus musculus. Kind of data set: Neurotoxicity against Mus musculus MFI (mouse) assessed as tail erection at 90 mg/kg, ip. Format: toxicity, organism-based. On the set-up: dose 90 mg/kg, route intraperitoneal. The note with it: in vivo.
Data set [10] has as its system Mus musculus. Kind of data set: Neurotoxicity against Mus musculus MFI (mouse) assessed as hair erection at 90 mg/kg, ip. It counts as toxicity, organism-based. Particulars: in vivo. On the set-up: dose 90 mg/kg, route intraperitoneal.
The subject of data set [11] is Mus musculus. Kind of data set: Neurotoxicity against Mus musculus MFI (mouse) assessed as tremors at 90 mg/kg, ip. It counts as toxicity, organism-based. Further details: dose 90 mg/kg, route intraperitoneal. Particulars: in vivo.
Data set [12] has as its system Mus musculus. Kind of data set: Neurotoxicity against Mus musculus MFI (mouse) assessed as epilepsy at 135 mg/kg, ip. Format: toxicity, organism-based. Further details: dose 135 mg/kg, route intraperitoneal. The note with it: in vivo.
The test system of data set [13] is Mus musculus. Kind of data set: Neurotoxicity against Mus musculus MFI (mouse) assessed as skeletal muscle incoordination at 50 mg/kg, ip. It counts as toxicity, organism-based, Muscle tissue. Further details: dose 50 mg/kg, route intraperitoneal. Particulars: in vivo.
In data set [14] the test system is Mus musculus. Kind of data set: Neurotoxicity against Mus musculus MFI (mouse) assessed as effect on respiration at 50 mg/kg, ip. Format: toxicity, organism-based. On the set-up: dose 50 mg/kg, route intraperitoneal. Particulars: in vivo.
The subject of data set [15] is Mus musculus. Kind of data set: Neurotoxicity against Mus musculus MFI (mouse) assessed as excitation at 50 mg/kg, ip. The note with it: in vivo. Format: toxicity, organism-based. On the set-up: dose 50 mg/kg, route intraperitoneal.
Data set [16] concerns Mus musculus. Kind of data set: Neurotoxicity against Mus musculus MFI (mouse) assessed as skeletal muscle incoordination at 135 mg/kg, ip. Format: toxicity, organism-based, Muscle tissue. On the set-up: dose 135 mg/kg, route intraperitoneal. The note with it: in vivo.
Data set [17] relates to Mus musculus. Nature of the data set: Neurotoxicity against Mus musculus MFI (mouse) assessed as tail erection at 50 mg/kg, ip. On the set-up: dose 50 mg/kg, route intraperitoneal. The note with it: in vivo. It counts as toxicity, organism-based.
The test system of data set [18] is Mus musculus. Kind of data set: Neurotoxicity against Mus musculus MFI (mouse) assessed as effect on respiration at 135 mg/kg, ip. Format: toxicity, organism-based. On the set-up: dose 135 mg/kg, route intraperitoneal. Particulars: in vivo.
In data set [19] the test system is Mus musculus. Nature of the data set: Neurotoxicity against Mus musculus MFI (mouse) assessed as eye protrusion at 50 mg/kg, ip. It counts as toxicity, organism-based. On the set-up: dose 50 mg/kg, route intraperitoneal. Particulars: in vivo.
The test system of data set [20] is Mus musculus. Kind of data set: Neurotoxicity against Mus musculus MFI (mouse) assessed as eye protrusion at 135 mg/kg, ip. It counts as toxicity, organism-based. On the set-up: dose 135 mg/kg, route intraperitoneal. Particulars: in vivo.
In data set [21] the test system is Mus musculus. Nature of the data set: Neurotoxicity against Mus musculus MFI (mouse) assessed as excitation at 135 mg/kg, ip. It counts as toxicity, organism-based. Further details: dose 135 mg/kg, route intraperitoneal. Particulars: in vivo.
Data set [22] relates to Mus musculus. Kind of data set: […] activity in Mus musculus MFI (mouse) assessed as inhibition of PBQ-induced writhing at 135 mg/kg, ip administered 1.5 hr prior to PBQ-challenge measured after 10 min relative to aspirin. Format: functional. Particulars: route intraperitoneal.
Data set [23] relates to Mus musculus. Kind of data set: Neurotoxicity against Mus musculus MFI (mouse) assessed as irritability at 50 mg/kg, ip. It counts as toxicity, organism-based. On the set-up: dose 50 mg/kg, route intraperitoneal. The note with it: in vivo.
Data set [24] deals with Mus musculus. Nature of the data set: Neurotoxicity against Mus musculus MFI (mouse) assessed as tremors at 135 mg/kg, ip. Format: toxicity, organism-based. Further details: dose 135 mg/kg, route intraperitoneal. Particulars: in vivo.
For data set [25], the system named is Mus musculus. Nature of the data set: Neurotoxicity against Mus musculus MFI (mouse) assessed as hair erection at 135 mg/kg, ip. It counts as toxicity, organism-based. Further details: dose 135 mg/kg, route intraperitoneal. Particulars: in vivo.
Data set [26] concerns Mus musculus. Kind of data set: Neurotoxicity against Mus musculus MFI (mouse) assessed as tail erection at 135 mg/kg, ip. Format: toxicity, organism-based. On the set-up: dose 135 mg/kg, route intraperitoneal. The note with it: in vivo.
Data set [27] concerns Mus musculus. Nature of the data set: Neurotoxicity against Mus musculus MFI (mouse) assessed as muscle twitching at 135 mg/kg, ip. The note with it: in vivo. On the set-up: dose 135 mg/kg, route intraperitoneal. It counts as toxicity, organism-based, Muscle tissue.
For data set [28], the system named is Mus musculus. Kind of data set: […] activity in ip dosed Mus musculus MFI (mouse) assessed as inhibition of PBQ-induced writhing administered 1.5 hr prior to PBQ-challenge measured after 10 min. Format: functional. Particulars: read-out: MED.
In data set [29] the test system is Mus musculus. Kind of data set: Neurotoxicity in ip dosed Mus musculus MFI (mouse). It counts as toxicity, organism-based. Particulars: in vivo.
For data set [30], the system named is Mus musculus. Nature of the data set: […] activity in Mus musculus MFI (mouse) assessed as inhibition of PBQ-induced writhing at 50 mg/kg, ip administered 1.5 hr prior to PBQ-challenge measured after 10 min relative to aspirin. It counts as functional. Particulars: route intraperitoneal.
For data set [31], the system named is Mus musculus. Nature of the data set: Neurotoxicity against Mus musculus MFI (mouse) assessed as tremors at 50 mg/kg, ip. Format: toxicity, organism-based. On the set-up: dose 50 mg/kg, route intraperitoneal. The note with it: in vivo.
In data set [32] the test system is Mus musculus. Kind of data set: Neurotoxicity against Mus musculus MFI (mouse) assessed as epilepsy at 50 mg/kg, ip. On the set-up: dose 50 mg/kg, route intraperitoneal. The note with it: in vivo. Format: toxicity, organism-based.
The subject of data set [33] is Mus musculus. Kind of data set: Neurotoxicity against Mus musculus MFI (mouse) assessed as hair erection at 50 mg/kg, ip. Further details: dose 50 mg/kg, route intraperitoneal. Particulars: in vivo. It counts as toxicity, organism-based.
The test system of data set [34] is Mus musculus. Nature of the data set: Neurotoxicity against Mus musculus MFI (mouse) assessed as muscle twitching at 50 mg/kg, ip. Particulars: in vivo. On the set-up: dose 50 mg/kg, route intraperitoneal. Format: toxicity, organism-based, Muscle tissue.
The subject of data set [35] is Mus musculus. Nature of the data set: Neurotoxicity against Mus musculus MFI (mouse) assessed as irritability at 135 mg/kg, ip. It counts as toxicity, organism-based. Further details: dose 135 mg/kg, route intraperitoneal. Particulars: in vivo.

In the case of `CC(CN1CCN(C)CC1)Oc1cccc(Cl)c1Cl.O=C(O)C(=O)O` (racemic), the Activity result in data set [1], in data set [2], in data set [3], in data set [4], in data set [5] and in [7] was “Toxic” in each case. In addition, the Activity entry in data set [8], in data set [9], in data set [10] and in [11] was “Toxic” in each case. The inhibition in vivo at 90 mg/kg in data set [6] stood at 85%.
On to `CC(COc1cc(Cl)ccc1Cl)N1CCN(C)CC1.O=C(O)C(=O)O` (racemic), for which the Activity result in data set [1], in data set [12], in [2], in data set [13], in data set [3] and in data set [14] was “Toxic” throughout. Moreover, the Activity entry in data set [15], in data set [16], in data set [4], in [17], in [18] and in data set [19] was “Toxic” throughout. Moreover, the Activity entry in [5], in data set [20], in data set [21], in data set [23], in [7] and in data set [8] was “Toxic” in each case. The Activity result in data set [24], in [25], in data set [26], in data set [27], in [9] and in [10] was “Toxic” throughout. For the same compound, the Activity entry in [31], in data set [32], in [11], in [33], in data set [34] and in data set [35] was “Toxic” in each case. Besides, the inhibition in vivo at 90 mg/kg in data set [6] is 62.5%. Besides, the inhibition in vivo at 135 mg/kg in data set [22] turned out to be 100%. For the same compound, the minimal effective dose in data set [28] was found to be 60 mg/kg. Besides, the MTC in data set [29] was 90 mg/kg. Further, the inhibition in vivo at 50 mg/kg in [30] was 50%.
